# From publication PMC7311426, “An amphipathic peptide with antibiotic activity against multidrug-resistant Gram-negative bacteria” (Nature Communications, 2020)
# Where two headings read alike, the source gives them in different places.
# Columns and labels:
# E. coli ATCC 25922 [1] = type: cell-based, Escherichia coli; settings: E. coli ATCC 25922, FDA control strain; BMD with 5% Survanta lung surfactant; mode, or median where no mode, n=4 to 6; where n=2 differs the higher value
# P. aeruginosa = experiment: microbe, parasite or virus in culture; type: cell-based, Pseudomonas aeruginosa; set-up: MIC, Survanta (5%) replicates: unit not given beside the values; settings: for MIC: Pseudomonas aeruginosa
# E. coli ATCC 25922 [2] = experiment: microbe, parasite or virus in culture; type: cell-based, Escherichia coli; set-up: MIC, Survanta (5%) replicates: unit not given beside the values; settings: for MIC, Survanta (5%) replicates / MIC, Serum (50%) / MIC, Serum (50%) replicates: E. coli ATCC 25922, FDA control strain; for MIC, Survanta (5%) replicates: BMD with 5% Survanta lung surfactant; for MIC, Serum (50%) / MIC, Serum (50%) replicates: BMD with 50% human serum; for MIC, Serum (50%): mode, or median where no mode, n=4 to 6, where n=2 differs the higher value; for MIC: Escherichia coli, E. coli ATCC 25922, n=2 to 6, mode or median
# Method in brief: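 Broth microdilution MIC in Mueller Hinton broth, 12-point 2-fold series from 128 or 64 down to 0.06 or 0.03 μg mL^−1, 5 × 10^5 CFU mL^−1 inoculum. Read visually after 18-20 h at 37 °C without shaking; n ≥ 6. Additional tests in CAMHB, and in MHB with 1% agarose.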
# A. baumannii ATCC 19636 = experiment: microbe, parasite or virus in culture; type: cell-based, Acinetobacter baumannii; settings: for MIC, Survanta (5%) / MIC, Survanta (5%) replicates: A. baumannii ATCC 19636, type strain, BMD with 5% Survanta lung surfactant; for MIC, Survanta (5%): mode, or median where no mode, n=4 to 6, where n=2 differs the higher value; for MIC: Acinetobacter baumannii, ATCC19636, read-out: MIC, Survanta (5%), A. baumannii ATCC 19636 type strain, n=2 to 6, mode or median
# [3] = P. aeruginosa FADDI-070, MDR, PmxR, BMD with 5% Survanta lung surfactant, mode, or median where no mode, n=4 to 6, where n=2 differs the higher value
# [4] = P. aeruginosa FADDI-070, MDR, PmxR, BMD with 5% Survanta lung surfactant, replicate 1
# [5] = P. aeruginosa FADDI-070, MDR, PmxR, BMD with 5% Survanta lung surfactant, replicate 2
# [6] = P. aeruginosa FADDI-070, MDR, PmxR, BMD with 5% Survanta lung surfactant, replicate 3
# [7] = P. aeruginosa FADDI-070, MDR, PmxR, BMD with 5% Survanta lung surfactant, replicate 4
# [8] = P. aeruginosa FADDI-070, MDR, PmxR, BMD with 50% human serum, replicate 1
# [9] = P. aeruginosa FADDI-070, MDR, PmxR, BMD with 50% human serum, replicate 2
# [10] = P. aeruginosa FADDI-070, MDR, PmxR, BMD with 50% human serum, where n=2 differs the higher value is recorded
# [11] = ATCC25922, read-out: MIC, SURVANTA (5%), MHB + 5% (v/v) lung surfactant
Compound,"MIC, Survanta (5%) (E. coli ATCC 25922 [1])","MIC, Survanta (5%) (P. aeruginosa; [3])","MIC, Survanta (5%) replicates (P. aeruginosa; [4])","MIC, Survanta (5%) replicates (P. aeruginosa; [5])","MIC, Survanta (5%) replicates (P. aeruginosa; [6])","MIC, Survanta (5%) replicates (P. aeruginosa; [7])","MIC, Serum (50%) replicates (P. aeruginosa; [8])","MIC, Serum (50%) replicates (P. aeruginosa; [9])","MIC, Serum (50%) (P. aeruginosa; [10])","MIC (P. aeruginosa; read-out: MIC, Serum (50%)) [µg/mL]","MIC (P. aeruginosa; read-out: MIC, Survanta (5%)) [µg/mL]","MIC, Survanta (5%) replicates (E. coli ATCC 25922 [2]; replicate 1)","MIC, Survanta (5%) replicates (E. coli ATCC 25922 [2]; replicate 2)","MIC, Survanta (5%) replicates (E. coli ATCC 25922 [2]; replicate 3)","MIC, Survanta (5%) replicates (E. coli ATCC 25922 [2]; replicate 4)","MIC, Serum (50%) (E. coli ATCC 25922 [2])","MIC, Serum (50%) replicates (E. coli ATCC 25922 [2]; replicate 1)","MIC, Serum (50%) replicates (E. coli ATCC 25922 [2]; replicate 2)","MIC, Serum (50%) replicates (E. coli ATCC 25922 [2]; replicate 3)","MIC, Serum (50%) replicates (E. coli ATCC 25922 [2]; replicate 4)",also measured
COc1cc(Cc2cnc(N)nc2N)cc(OC)c1OC [Trimethoprim],1,>64,>64,>64,>64,>64,>64,64,≥64,≥ 64,> 64,1,1,1,1,4,4,2,4,4,"MIC, Serum (50%) (P. aeruginosa): >64; MIC, Serum (50%) replicates (P. aeruginosa): >64; MIC, Survanta (5%) (P. aeruginosa): >64; MIC, Survanta (5%) replicates (P. aeruginosa): >64; MIC (P. aeruginosa; ATCC27853, read-out: MIC, Serum (50%)): > 64 µg/mL; MIC (P. aeruginosa; ATCC27853, read-out: MIC, Survanta (5%)): > 64 µg/mL; MIC (E. coli ATCC 25922 [2]; [11]): 1 µg/mL; MIC (E. coli ATCC 25922 [2]; ATCC25922, read-out: MIC, Serum (50%), MHB + 50% (v/v) human serum): 4 µg/mL; MIC, Survanta (5%) (A. baumannii ATCC 19636): 32; MIC, Survanta (5%) replicates (A. baumannii ATCC 19636; replicate 1): >64; MIC, Survanta (5%) replicates (A. baumannii ATCC 19636; replicate 2): >64; MIC, Survanta (5%) replicates (A. baumannii ATCC 19636; replicate 3): 16; MIC, Survanta (5%) replicates (A. baumannii ATCC 19636; replicate 4): 32; MIC (A. baumannii ATCC 19636): 32 µg/mL"
"O=C(O)c1cn(C2CC2)c2cc(N3CCNCC3)c(F)cc2c1=O [Ciprofloxacin, ciprofloxacin]",≤0.03,0.5,1,1,0.125,0.5,0.06,0.06,0.06,0.06,0.5,≤0.03,≤0.03,≤0.03,≤0.03,≤0.03,≤0.03,≤0.03,≤0.03,≤0.03,"MIC, Survanta (5%) (P. aeruginosa; P. aeruginosa ATCC 27853, control strain, BMD with 5% Survanta lung surfactant, mode, or median where no mode, n=4 to 6, where n=2 differs the higher value): 1; MIC, Survanta (5%) replicates (P. aeruginosa; P. aeruginosa ATCC 27853, control strain, BMD with 5% Survanta lung surfactant, replicate 1): 1; MIC, Survanta (5%) replicates (P. aeruginosa; P. aeruginosa ATCC 27853, control strain, BMD with 5% Survanta lung surfactant, replicate 2): 1; MIC, Survanta (5%) replicates (P. aeruginosa; P. aeruginosa ATCC 27853, control strain, BMD with 5% Survanta lung surfactant, replicate 3): 0.5; MIC, Survanta (5%) replicates (P. aeruginosa; P. aeruginosa ATCC 27853, control strain, BMD with 5% Survanta lung surfactant, replicate 4): 0.5; MIC, Serum (50%) replicates (P. aeruginosa; P. aeruginosa ATCC 27853, control strain, BMD with 50% human serum, replicate 1): 0.125; MIC (P. aeruginosa; ATCC27853, read-out: MIC, Survanta (5%), P. aeruginosa ATCC 27853 control strain, n=2 to 6, mode or median): 1 µg/mL; MIC (E. coli ATCC 25922 [2]; [11]): ≤ 0.03 µg/mL; MIC, Survanta (5%) (A. baumannii ATCC 19636): 1; MIC, Survanta (5%) replicates (A. baumannii ATCC 19636; replicate 2): 1; MIC, Survanta (5%) replicates (A. baumannii ATCC 19636; replicate 3): 1; MIC, Survanta (5%) replicates (A. baumannii ATCC 19636; replicate 4): 1; MIC (A. baumannii ATCC 19636): 1 µg/mL"
